Measurements as given in paper PMC3705412, “PTP1B Inhibitory and Anti-Inflammatory Effects of Secondary Metabolites Isolated from the Marine-Derived Fungus Penicillium sp. JF-55” (Marine Drugs, 2013).

Tests used:
[1] = system: COX-2-derived PGE2 production in murine peritoneal macrophages; test: PGE2 production in LPS-stimulated macrophages, ELISA; format: cell-based, murine (C57BL/6 mice); conditions: Mus musculus, Peritoneal macrophage; pre-treated 12 h, LPS 1 μg/mL 18 h
Description: (§1) C57BL/6 mice were purchased from Orient Bio Co. (Sungnam, Kyung-Kido, Korea). TG-elicited peritoneal macrophages were harvested four days after intraperitoneal (i.p.) injection of 3 mL of TG [37]. Peritoneal lavage was performed using 8 mL of Hanks’ Balanced Salt Solution containing 10 U/mL heparin. The cells were distributed in Roswell Park Memorial Institute medium (RPMI) supplemented with 10% heat-inactivated FBS, in 6-well tissue culture plates (5 × 10^6 cells/mL). The level of PGE2, TNF-α or IL-1β present in each sample was determined using a commercially available kit from R & D Systems. The assay was performed according to the manufacturer’s instructions. Briefly, murine peritoneal macrophages were cultured in 24-well plates, pre-incubated for 12 h with different concentrations of compounds 1–3, and then stimulated for 18 h with LPS. The cell culture supernatants were then immediately collected after treatment and centrifuged at 13,000× g for 2 min to remove particulate matter. The medium was added to a 96-well plate pre-coated with affinity-purified PGE2-specific polyclonal antibodies or the medium was added to a 96-well plate pre-coated with affinity-purified polyclonal antibodies that were specific to mouse TNF-α or IL-1β. An enzyme-linked polyclonal antibody specific for PGE2, mouse TNF-α or IL-1β was added to the wells for 20 h, followed by a final wash to remove any unbound antibody-enzyme reagent. A substrate solution was added, and the intensity of the color produced, which was measured at 450 nm (the correction wavelength was set at 540 nm or 570 nm), was proportional to the amount of PGE2, TNF-α or IL-1β present.

[2] = system: iNOS-derived NO production in murine peritoneal macrophages; test: Nitrite (NO) production in LPS-stimulated macrophages, Griess reaction; format: cell-based, murine (C57BL/6 mice); conditions: Mus musculus, Peritoneal macrophage; pre-treated 12 h, LPS 1 μg/mL 18 h
Description: The expression of pro-inflammatory enzymes, including COX-2 and iNOS, plays an important role in immune-activated macrophages via the production of COX-2-derived PGE2 and iNOS-derived NO [20, 21]. To investigate the effects of compounds on iNOS-derived NO and COX-2-derived PGE2 production, and iNOS and COX-2 expression in LPS-stimulated macrophages, murine peritoneal macrophages were stimulated with LPS (1 μg/mL) for 18 h in the presence or absence of non-cytotoxic concentrations of compounds 1–3 (Figure S1). […] The finding that penstyrylpyrone (1) suppressed LPS-induced pro-inflammatory mediators, such as NO, PGE2, iNOS, and COX-2, led further investigation of the effects of penstyrylpyrone (1) on LPS-induced TNF-α and IL-1β production, which are other pro-inflammatory mediators.
C57BL/6 mice were purchased from Orient Bio Co. (Sungnam, Kyung-Kido, Korea). TG-elicited peritoneal macrophages were harvested four days after intraperitoneal (i.p.) injection of 3 mL of TG [37]. Peritoneal lavage was performed using 8 mL of Hanks’ Balanced Salt Solution containing 10 U/mL heparin. The cells were distributed in Roswell Park Memorial Institute medium (RPMI) supplemented with 10% heat-inactivated FBS, in 6-well tissue culture plates (5 × 10^6 cells/mL).
The production of nitrite, a stable end product of NO oxidation, was used as a measure of iNOS activity. The nitrite present in the conditioned medium was determined using a method based on the Griess reaction.

CD4 = system: CD4; set-up: method as in doi:10.1351/pac199466102383; conditions: previously reported ref 43; cited from earlier work
[3] = system: IL-1β production in murine peritoneal macrophages; test: IL-1β production in LPS-stimulated macrophages, ELISA; format: cell-based, murine (C57BL/6 mice); conditions: Mus musculus, Peritoneal macrophage; pre-treated 12 h, LPS 1 μg/mL 18 h
Description: as §1

[4] = biological target: T1, PTP1B (human, recombinant) (Homo sapiens, UniProt P18031); test: PTP1B assay (pNPP hydrolysis); format: biochemical; conditions: for IC50: 2 mM pNPP, pH 6.0, 30 °C, 30 min, read-out: PTP1B inhibitory activity IC50
T1 construct: purchased BIOMOL Research Laboratories, Inc
T1 sequence (P18031 1-435): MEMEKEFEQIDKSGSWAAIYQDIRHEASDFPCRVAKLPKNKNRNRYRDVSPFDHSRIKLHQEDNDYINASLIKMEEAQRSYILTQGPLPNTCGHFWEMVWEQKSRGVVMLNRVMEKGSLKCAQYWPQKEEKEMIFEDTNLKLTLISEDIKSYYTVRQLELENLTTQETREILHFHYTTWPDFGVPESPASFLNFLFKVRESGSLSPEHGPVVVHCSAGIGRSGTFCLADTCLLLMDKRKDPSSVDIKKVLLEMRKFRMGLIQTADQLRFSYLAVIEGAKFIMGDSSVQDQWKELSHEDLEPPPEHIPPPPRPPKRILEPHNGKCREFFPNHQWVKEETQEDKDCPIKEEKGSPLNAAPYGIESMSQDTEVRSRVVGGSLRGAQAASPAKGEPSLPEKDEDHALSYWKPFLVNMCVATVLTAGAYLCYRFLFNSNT
Description: PTP1B (human, recombinant) was purchased from BIOMOL Research Laboratories, Inc. Enzyme activity was measured in a reaction mixture containing 2 mM p-nitrophenyl phosphate (pNPP) in 50 mM citrate, pH 6.0 (composition: 0.1 M NaCl, 1 mM EDTA, and 1 mM dithiothreitol (DTT)). The reaction mixture was placed in an incubator maintained at 30 °C for 30 min, and the reaction was terminated by the addition of 1 N NaOH. The amount of p-nitrophenol produced was estimated by measuring the increase in absorbance at 405 nm. The nonenzymatic hydrolysis of 2 mM pNPP was corrected by measuring the increase in absorbance at 405 nm in the absence of PTP1B enzyme. For the kinetic analysis, the reaction mixture consisted of different concentrations of pNPP as a PTP1B substrate in the absence or presence of compound 1, and assays were performed as described above. The Michaelis-Menten constant (Km) and maximum velocity (Vmax) of PTP1B were determined by the Lineweaver-Burk plot using a GraphPad Prism® 4 program (GraphPad Software Inc., San Diego, CA, USA).

[5] = system: TNF-α production in murine peritoneal macrophages; test: TNF-α production in LPS-stimulated macrophages, ELISA; format: cell-based, murine (C57BL/6 mice); conditions: Mus musculus, Peritoneal macrophage; pre-treated 12 h, LPS 1 μg/mL 18 h
Description: as §1

## CC1=Cc2oc3cc(O)c(O)c(C(=O)O)c3c(=O)c2CO1 [Anhydrofulvic acid (2), anhydrofulvic acid]
[1]
  IC50: > 40 µM
[2]
  IC50: > 40 µM
CD4
  CD4-binding activity: weak
[3]
  IC50: > 40 µM
[4]
  IC50: 1.9 µM
[4]; different concentrations of pNPP
  Mode of PTP1B inhibition (Lineweaver-Burk, non-linear regression): competitive
[5]
  IC50: > 40 µM

## Cc1cc(=O)c2c(o1)-c1c(cc(O)c(O)c1C(=O)O)OC2 [Citromycetin (3), citromycetin]
[1]
  IC50: > 40 µM
[2]
  IC50: > 40 µM
CD4
  CD4-binding activity: weak
[3]
  IC50: > 40 µM
[4]
  IC50: > 25.8 µM
[5]
  IC50: > 40 µM
